Experimental data published in patent publication US10968231B2, “Substituted cyclyl-acetic acid derivatives for the treatment of metabolic disorders” (TAKEDA PHARMACEUTICAL COMPANY LIMITED, priority 2017, dated 2021).

Molecular target: T1, human GPR40 (Homo sapiens, UniProt O14842)
T1 construct: expressed in transfected cells
Assay: Evaluation of human GPR40 agonist activity with increase in intracellular Ca2+ concentration as an index (FLIPR)
Format: cell-based
Conditions: test compound at final concentration of 1 μM; CHO(dhfr−) cells stably expressing human GPR40; 100% = activity of 10 μM of compound of WO 2015/020184 Example 153, 0% = DMSO
Protocol: Evaluation of Human GPR40 Agonist Activity with Increase in Intracellular Ca^2+ Concentration as an Index
CHO(dhfr−) cells that stably expressed human GPR40 were suspended in MEMα (Wako Pure Chemical Industries, Ltd.) containing 10% dialyzed serum (Thermo Fisher Scientific), 10 mM HEPES (Thermo Fisher Scientific), 100 U/mL penicillin, 100 μg/mL streptomycin (Wako Pure Chemical Industries, Ltd.), and plated on a 384 well black/clear cell culture plate at 10,000 cells/well. After culture overnight in a CO2 incubator at 37° C., the culture supernatant was removed, and loading buffer [Ca^2+ probe attached to Calcium Kit II-iCellux (DOJINDO) was dissolved in assay buffer (20 mM HEPES, 0.1% fatty acid-free BSA (Wako Pure Chemical Industries, Ltd.), 2.5 mM probenecid (DOJINDO)-containing HBSS (Thermo Fisher Scientific))] was added at 30 μL/well. After leaving for 1 hr at room temperature under light shielding, assay buffer containing the test compound at a final concentration of 1 μM was added at 10 μL/well in fluorescence plate reader FLIPR Tetra (Molecular Devices), and the fluorescence amount was successively measured. Human GPR40 agonist activity was calculated using an increase in the intracellular Ca^2+ concentration as an index, wherein the activity of 10 μM of the compound of WO 2015/020184 (Example 153: 3-cyclopropyl-3-(2-((1-(2-((2-fluoro-2-methylpropyl)(4-methylpyridin-2-yl)carbamoyl)-5-methoxyphenyl)piperidin-4-yl)methoxy)pyridin-4-yl)propanoic acid) was 100%, and the activity when DMSO was added instead of the test compound was 0%.

T1 sequence (O14842 whole entry): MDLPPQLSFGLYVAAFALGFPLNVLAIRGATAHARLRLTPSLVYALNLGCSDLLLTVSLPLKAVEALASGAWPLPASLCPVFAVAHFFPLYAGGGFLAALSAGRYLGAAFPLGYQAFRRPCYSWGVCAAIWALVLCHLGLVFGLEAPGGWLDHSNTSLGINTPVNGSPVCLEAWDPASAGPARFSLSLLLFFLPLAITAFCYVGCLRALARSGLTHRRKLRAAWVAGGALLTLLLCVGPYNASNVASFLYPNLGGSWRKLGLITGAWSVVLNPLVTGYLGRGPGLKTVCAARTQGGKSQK

activity (human GPR40 agonist activity)	Compound
111%	COc1cc(N2CCC(COc3cc4c(cn3)OCCC4CC(=O)O)CC2)c(C2CCN(CC(F)(F)F)CC2)cn1 (single isomer, unassigned) [Example 5, (6-((1-(2-methoxy-5-(1-(2,2,2-trifluoroethyl)piperidin-4-yl)pyridin-4-yl)piperidin-4-yl)methoxy)-3,4-dihydro-2H-pyrano[2,3-c]pyridin-4-yl)acetic acid]
59%	COc1cc(N2CCC(COc3cc4c(cn3)OCCC4CC(=O)O)CC2)c(C2CCN(CC(F)(F)F)CC2)cn1 (single isomer, unassigned) [Example 6, (6-((1-(2-methoxy-5-(1-(2,2,2-trifluoroethyl)piperidin-4-yl)pyridin-4-yl)piperidin-4-yl)methoxy)-3,4-dihydro-2H-pyrano[2,3-c]pyridin-4-yl)acetic acid]
107%	COc1cc(N2CCC(COc3cc4c(cn3)OCCC4CC(=O)O)CC2)c(C2CCN(CC(F)(F)F)CC2)cn1 (single isomer, unassigned) [Example 7, (6-((1-(2-methoxy-5-(1-(2,2,2-trifluoroethyl)piperidin-4-yl)pyridin-4-yl)piperidin-4-yl)methoxy)-3,4-dihydro-2H-pyrano[2,3-c]pyridin-4-yl)acetic acid]
107%	COc1ccc(CCC(F)(F)F)c(N2CCC(COc3cc4c(cn3)OCCC4CC(=O)O)CC2)c1 (stereo not shown) [Example 1, (6-((1-(5-methoxy-2-(3,3,3-trifluoropropyl)phenyl)piperidin-4-yl)methoxy)-3,4-dihydro-2H-pyrano[2,3-c]pyridin-4-yl)acetic acid]
108%	COc1cc(N2CCC(COc3cc4c(cn3)OCCC4CC(=O)O)CC2)c(OCC(F)(F)C(F)(F)F)cn1 (stereo not shown) [Example 2, (6-((1-(2-methoxy-5-(2,2,3,3,3-pentafluoropropoxy)pyridin-4-yl)piperidin-4-yl)methoxy)-3,4-dihydro-2H-pyrano[2,3-c]pyridin-4-yl)acetic acid]
109%	COc1cc(N2CCC(COc3cc4c(cn3)CCC4CC(=O)O)CC2)c(OCC(F)(F)C(F)(F)F)cn1 (stereo not shown) [Example 3, (3-((1-(2-methoxy-5-(2,2,3,3,3-pentafluoropropoxy)pyridin-4-yl)piperidin-4-yl)methoxy)-6,7-dihydro-5H-cyclopenta[c]pyridin-5-yl)acetic acid]
108%	COc1ccc(C2CCN(CC(F)(F)F)CC2)c(N2CCC(COc3cc4c(cn3)CCC4CC(=O)O)CC2)c1 (stereo not shown) [Example 4, (3-((1-(5-methoxy-2-(1-(2,2,2-trifluoroethyl)piperidin-4-yl)phenyl)piperidin-4-yl)methoxy)-6,7-dihydro-5H-cyclopenta[c]pyridin-5-yl)acetic acid]
103%	COc1ccc(CCC(F)(F)F)c(N2CCC(COc3cc4c(cn3)OCCC4CC(=O)O)CC2)c1 (stereo not shown) [Example 8, (6-((1-(5-methoxy-2-(3,3,3-trifluoropropyl)phenyl)piperidin-4-yl)methoxy)-3,4-dihydro-2H-pyrano[2,3-c]pyridin-4-yl)acetic acid]
104%	COc1ccc(C2CCN(CC(F)(F)F)CC2)c(N2CCC(COc3cc4c(cn3)OCCC4CC(=O)O)CC2)c1 (stereo not shown) [Example 9, (6-((1-(5-methoxy-2-(1-(2,2,2-trifluoroethyl)piperidin-4-yl)phenyl)piperidin-4-yl)methoxy)-3,4-dihydro-2H-pyrano[2,3-c]pyridin-4-yl)acetic acid]
105%	COc1ccc(C2CCN(CC(F)(F)F)CC2)c(N2CCC(COc3cc4c(cn3)CCC4CC(=O)O)CC2)c1 (stereo not shown) [Example 10, (3-((1-(5-methoxy-2-(1-(2,2,2-trifluoroethyl)piperidin-4-yl)phenyl)piperidin-4-yl)methoxy)-6,7-dihydro-5H-cyclopenta[c]pyridin-5-yl)acetic acid]
107%	COc1cc(N2CCC(COc3cc4c(cn3)OCCC4CC(=O)O)CC2)c(OCC(F)(F)C(F)(F)F)cn1 (stereo not shown) [Example 11, (6-((1-(2-methoxy-5-(2,2,3,3,3-pentafluoropropoxy)pyridin-4-yl)piperidin-4-yl)methoxy)-3,4-dihydro-2H-pyrano[2,3-c]pyridin-4-yl)acetic acid]
58%	COc1cc(N2CCC(COc3cc4c(cn3)OCCC4CC(=O)O)CC2)c(OCC(F)(F)C(F)(F)F)cn1 (stereo not shown) [Example 17, (6-((1-(2-methoxy-5-(2,2,3,3,3-pentafluoropropoxy)pyridin-4-yl)piperidin-4-yl)methoxy)-3,4-dihydro-2H-pyrano[2,3-c]pyridin-4-yl)acetic acid]
41%	COc1ccc(CCC(F)(F)F)c(N2CCC(COc3cc4c(cn3)OCCC4CC(=O)O)CC2)c1 (stereo not shown) [Example 18, (6-((1-(5-methoxy-2-(3,3,3-trifluoropropyl)phenyl)piperidin-4-yl)methoxy)-3,4-dihydro-2H-pyrano[2,3-c]pyridin-4-yl)acetic acid]
54%	COc1ccc(C2CCN(CC(F)(F)F)CC2)c(N2CCC(COc3cc4c(cn3)OCCC4CC(=O)O)CC2)c1 (stereo not shown) [Example 28, (6-((1-(5-methoxy-2-(1-(2,2,2-trifluoroethyl)piperidin-4-yl)phenyl)piperidin-4-yl)methoxy)-3,4-dihydro-2H-pyrano[2,3-c]pyridin-4-yl)acetic acid]
65%	COc1ccc(C2CCN(CC(F)(F)F)CC2)c(N2CCC(COc3cc4c(cn3)CCC4CC(=O)O)CC2)c1 (stereo not shown) [Example 29, (3-((1-(5-methoxy-2-(1-(2,2,2-trifluoroethyl)piperidin-4-yl)phenyl)piperidin-4-yl)methoxy)-6,7-dihydro-5H-cyclopenta[c]pyridin-5-yl)acetic acid]
110%	COc1ccc(C2CCN(CC(F)(F)F)CC2)c(N2CCC(COc3cc4c(cn3)OCCC4CC(=O)O)CC2)c1 (stereo not shown) [Example 36, (6-((1-(5-methoxy-2-(1-(2,2,2-trifluoroethyl)piperidin-4-yl)phenyl)piperidin-4-yl)methoxy)-3,4-dihydro-2H-pyrano[2,3-c]pyridin-4-yl)acetic acid]
